Values after ≈ are worked out from the molar mass of the structure shown.
Details: not given

Structure (SMILES)	melting point [°C]	boiling point [°C]	log10 Henry constant (atm·m³/mol)	log10 Koc (L/kg)	log10 vapour pressure (mmHg)	ready biodegradability	log10 Koa	log10 biodegradation half-life (days)	solubility [mM]
O=C(Nc1ccc(Br)cc1)c1cc(Br)cc(Br)c1O	227								
Oc1c(Cl)c(Cl)c(Cl)c(Cl)c1Cl	174	310	-7.61	4.3	-3.96	not readily biodegradable			
CC(C)CCC(C)C(C)C (stereo unspecified)		156							
COC(=O)C1(S(=O)(=O)c2ccc(Br)cc2)CC1	124								
Clc1ccccc1-c1c(Cl)cccc1Cl			-3.64						
Clc1cc(Cl)c2oc3c(Cl)c(Cl)cc(Cl)c3c2c1	204								
CCCO[Si](OCCC)(OCCC)OCCC		226							
C=C1CCO[C@]2([C@H](O)[C@@](C)(O)CO)NC(=O)[C@@]1(O)NC2=O	188								
CCCCCCCCC=CCCCCCCCC(=O)Nc1ccccc1	41								
NC(=O)C1c2ccccc2CCc2ccccc21	194								
CN(C)N=Nc1nc[nH]c1C(N)=O	205								
CC=Cc1ccc(OC)cc1	21.3	234			-1.15				
Cc1ccccc1S	15	195			-0.193				
CCC(=O)c1cc(C)ccc1O	2								
Clc1ccc2c(Cl)c(Cl)ccc2c1Cl							8.28		
C=C(C)C1CC1		70							
O=[Se](O)c1ccccc1	124								
C=CCCCCCCCCC	-49.2	193			-0.307				
COc1ccc2c(c1)N(CCCN(C)C)c1ccccc1S2	46								
CC(C)(C)c1cc(-n2nc3ccccc3n2)c(O)c(C(C)(C)C)c1						not readily biodegradable			
Cc1ccc(Oc2ccc([N+](=O)[O-])cc2)cc1	69								
OCC(O)COc1ccc(Cl)cc1 (stereo unspecified)	78								
CCCCCCC(=O)CCCC	2	227							
CCCCCCCC1CCCCC1	-30	244			-1.4				
O=C1OC(=O)c2c(Cl)c(Cl)c(Cl)c(Cl)c21	254					not readily biodegradable			

Structure (SMILES)	melting point [°C]	boiling point [°C]	log10 Henry constant (atm·m³/mol)	log10 Koc (L/kg)	log10 vapour pressure (mmHg)	ready biodegradability	log10 Koa	log10 biodegradation half-life (days)	solubility [mM]
c1ccc2[nH]cnc2c1	170								
C=C(C)C(=O)OCCCCCCCCCCCCCCCCCC						readily biodegradable			
CCOC(CC)(OCC)OCC		171							
O=C1OC(=O)C(F)(F)C1(F)F		54.5							
[N-]=[N+]=Nc1ccc(Br)cc1	20								
OCc1ccccc1	-15.2	205	-6.47	1.1	-1.03	readily biodegradable			
Oc1ccc(N=Nc2ccc(N=Nc3ccccc3)c3ccccc23)cc1	210								
O=C(O)c1ccccc1Cl	140	287			-3.18	not readily biodegradable			
CC(C)=CC(=O)O	69.5	197							
NCCC(=O)O						readily biodegradable			
CC(C)(C)c1ccc2cc3ccccc3cc2c1	147				-6.19				
c1ccc2c(c1)ccc1[nH]c3ccc4ccccc4c3c12	158			6.03					
CC(C)(N)CO	25.5	166			0				
C=Cc1c(Cl)cccc1Cl	89								
CCCOc1ccc([N+](=O)[O-])cc1NC(C)=O	102								
Nc1cc(Cl)c(Cl)cc1N	160								
CC1(C)[C@@H]2CC(=O)[C@@](C)(O)[C@H]1C2	38.5								
ClCC(Cl)C(Cl)=C(Cl)C(Cl)CCl (stereo unspecified)	58.5								
CN(C)c1ccc(C(O)c2ccc(N(C)C)cc2)cc1	101								
c1ccc2c(c1)ccc1ccccc12	99.2	340	-4.37	4.35	-3.92	readily biodegradable	7.57	1.62	
CCCCC(C)(C)CO		172							
CC(C)(SC(=O)N1CCCCC1)c1ccccc1	39				-5.4				
O=[N+]([O-])c1ccccc1CCl	51								
CCCCCCC(O)CCC (stereo unspecified)	-11	210							
CCOP(=S)(NC(C)C)Oc1ccccc1C(=O)OC(C)C (stereo unspecified)	-12			2.78	-5.52				

Structure (SMILES)	melting point [°C]	boiling point [°C]	log10 Henry constant (atm·m³/mol)	log10 Koc (L/kg)	log10 vapour pressure (mmHg)	ready biodegradability	log10 Koa	log10 biodegradation half-life (days)	solubility [mM]
O=C(Cl)CCCl		144							
CCCCOCCO	-74.8	168	-5.8	1.83	-0.0555	readily biodegradable			
Cc1ccc(C=O)cc1	-6	204			-0.602	readily biodegradable			
O=c1[nH]c(=O)n(C2CCCO2)cc1F (stereo unspecified)	172								
Cc1c(NC(=O)C(C)N(C)C)c(=O)n(-c2ccccc2)n1C (stereo unspecified)	181								
O=C(O)c1ccc([N+](=O)[O-])c([N+](=O)[O-])c1	166			1.53					
Clc1ccc(Cl)c2c(Cl)ccc(Cl)c12							8.45		
Fc1ccc(C(c2ccc(F)cc2)C(Cl)(Cl)Cl)cc1	44.5								
Cc1c(C(C)OC(=O)CCC(=O)O)oc2ccc(C3=CC(=O)OC3)cc12 (stereo unspecified)	144								
OCCOCCOCCOCCO		328			-4.33				
CC1(C)C=Cc2c(ccc3c2OC2c4ccc(O)cc4OCC32)O1 (stereo unspecified)	178								
CC(Cl)CC(C)Cl (stereo unspecified)		145							
O=[N+]([O-])c1cc(Br)ccc1Br	85.5								
C=CC[Si](Cl)(Cl)Cl	35	118			1.25				
CC(C)N(C(=O)CCl)c1ccccc1	77			2.42	-3.64				
Nc1cc(Cl)ccc1Cl	50	251				not readily biodegradable			
Cc1cc(C(C#N)c2ccc(Cl)cc2)c(Cl)cc1NC(=O)c1cc(I)cc(I)c1O (stereo unspecified)	218								
CC(=O)Oc1ccccc1C(=O)Oc1ccccc1C(=O)O	159								
CC(C)(C(=O)O)n1nnc2ccccc21	182								
CCOP(=O)(OCC)SCS(=O)CC (stereo unspecified)									30.7 (≈ 8000 µg/mL)
C1CN2CCC1CC2	158				0.282				
NCCCCCCN	41.5	205			-0.928	readily biodegradable			
c1ccc2c(c1)Nc1ccccc1O2	156								
C1=CC2C3C=CC(C3)C2C1 (stereo unspecified)	15.5	170			0.361	not readily biodegradable			
CC[C@]1(O)CC[C@H]2[C@@H]3CCC4=CCCC[C@@H]4[C@H]3CC[C@@]21C	77								

Same assay, conditions: fish

Structure (SMILES)	log10 BCF	log10 biotransformation half-life (days)
Oc1c(Cl)c(Cl)c(Cl)c(Cl)c1Cl	2.66	-0.2
Clc1ccccc1-c1c(Cl)cccc1Cl		2.5
C=CCCCCCCCCC		0.09
CC(C)(C)c1cc(-n2nc3ccccc3n2)c(O)c(C(C)(C)C)c1		0.89
CCCCCCCC1CCCCC1		0.17
O=C(O)c1ccccc1Cl	1	
c1ccc2c(c1)ccc1ccccc12	3.4	0.7
CCOP(=S)(NC(C)C)Oc1ccccc1C(=O)OC(C)C (stereo unspecified)	2.12	-0.51
Nc1cc(Cl)ccc1Cl	1.18	-1.13
C1=CC2C3C=CC(C3)C2C1 (stereo unspecified)	2.34	

Reference: the OPERA property sets (Mansouri et al. 2018)
